Values of other authors in patent US6472228B2, “Composition and methods for synthesis of novel tracers for detecting amphetamine and methamphetamine in samples” (Lifepoint, Inc., priority 2000, dated 2002).

Conditions: GC/MASS

## CN[C@@H](C)Cc1ccccc1 [methamphetamine]
  detectable in saliva samples after the last dose: up to 2 days
